Target: T1, human PDE4B1 (Homo sapiens, UniProt Q07343)
T1 construct: host or cells: Sf9 cells
Assay: cAMP HTRF assay to determine the activity of hPDE4B1
Type: biochemical
Details: test substrate concentration of 1 μM, read-out: Inhibition of PDE4B, Inhibition in %
Protocol: cAMP HTRF® Assay to Determine the Activity of hPDE4B1
The inhibiting effect of the compounds on the enzyme activity of human PDE4B1 was measured by the quantification of 5′-adenosine monophosphate (5′-AMP), which is formed from 3′,5′-cyclic adenosine monophosphate (cAMP). Human recombinant enzyme, expressed in Sf9 cells, and the HTRF (homogeneous time-resolved fluorescence) detection method were used in the assay.
The test compound or water (control) was mixed with the human recombinant PDE4B1 enzyme (4.8 U) in a buffer consisting of 44.4 mM tris-HCl, 5.28 mM MgCl2, 2.64 mM DTT and 0.044% Tween 20 (pH 7.8). After adding the cAMP enzyme substrate (final concentration 40 nM), the mixture was incubated for 30 minutes at room temperature. Then a fluorescence acceptor (Dye2 marked with cAMP), a fluorescence donor (anti-cAMP antibody marked with a europium cryptate) and the non-specific phosphodiesterase inhibitor IBMX (3-isobutyl-1-methylxanthine; final concentration 1 mM) were added. After 60 minutes the fluorescence transfer, which correlates with the amount of remaining cAMP, was measured with a microplate reader (Rubystar, BMG) at λex=337 nm, λem=620 nm and λem=665 nm. The enzyme activity was calculated from the quotient formed from the measured signal at 665 nm and that at 620 nm. The result was expressed as the percentage inhibition of enzyme activity of the control (without PDE4 inhibitor). The enzyme was omitted for measurement of the basal control. IC50 values (IC50=concentration causing a half-maximal inhibition of control specific activity) were derived from dose response measurements with eight different concentrations (n=2; N=1-3).
Literature: N. Saldou et al., Comparison of recombinant human PDE4 isoforms: interaction with substrate and inhibitors, Cell. Signal. Vol. 10, No. 6, 427-440, 1998

T1 sequence (Q07343 whole entry): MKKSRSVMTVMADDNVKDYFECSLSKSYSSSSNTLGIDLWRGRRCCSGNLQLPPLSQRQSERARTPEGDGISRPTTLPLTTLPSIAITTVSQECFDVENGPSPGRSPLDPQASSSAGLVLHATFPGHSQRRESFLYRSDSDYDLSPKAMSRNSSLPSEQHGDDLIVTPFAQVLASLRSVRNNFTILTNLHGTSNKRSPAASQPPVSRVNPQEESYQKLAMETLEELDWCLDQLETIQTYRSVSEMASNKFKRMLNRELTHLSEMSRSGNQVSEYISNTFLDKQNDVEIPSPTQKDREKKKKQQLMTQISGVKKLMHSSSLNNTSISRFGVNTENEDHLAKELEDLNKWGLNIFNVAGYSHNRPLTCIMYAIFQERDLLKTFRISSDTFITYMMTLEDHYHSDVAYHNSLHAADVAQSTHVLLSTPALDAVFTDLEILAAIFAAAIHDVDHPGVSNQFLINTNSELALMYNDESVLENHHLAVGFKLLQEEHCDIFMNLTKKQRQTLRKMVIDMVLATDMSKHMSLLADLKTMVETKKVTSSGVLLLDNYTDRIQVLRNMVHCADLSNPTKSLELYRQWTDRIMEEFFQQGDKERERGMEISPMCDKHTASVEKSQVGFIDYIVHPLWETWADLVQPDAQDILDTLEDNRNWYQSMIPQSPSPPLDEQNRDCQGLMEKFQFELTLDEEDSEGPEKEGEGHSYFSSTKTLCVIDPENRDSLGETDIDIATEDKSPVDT

Row | Compound | inhibition at 1 µM [%]
1 | COc1ccc(F)c(-c2cnc(-n3nc(C(C)O)c4ccc(C(=O)N5CCOCC5)cc43)nc2)c1 (stereo not shown) [Compound No. 21, (1-(5-(2-Fluoro-5-methoxyphenyl)pyrimidin-2-yl)-3-(1-hydroxyethyl)-1H-indazol-6-yl)(morpholino)methanone] | 112
2 | CC(O)c1nn(-c2ncc(-c3ccccc3F)cn2)c2cc(C(=O)N3CCOCC3)ccc12 (stereo not shown) [Compound No. 20, (1-(5-(2-Fluorophenyl)pyrimidin-2-yl)-3-(1-hydroxyethyl)-1H-indazol-6-yl)(morpholino)methanone] | 102
3 | COCCCNC(=O)c1cc2c(cn1)c(C1CC1)nn2-c1ncc(-c2ccccc2F)cn1 [compound 43, 3-Cyclopropyl-1-(5-(2-fluorophenyl)pyrimidin-2-yl)-N-(3-methoxypropyl)-1H-pyrazolo[4,3-c]pyridine-6-carboxamide] | 44
4 | CN(CCO)C(=O)c1cc2c(cn1)c(C1CC1)nn2-c1ncc(-c2ccccc2F)cn1 [compound 40, 3-Cyclopropyl-1-(5-(2-fluorophenyl)pyrimidin-2-yl)-N-(2-hydroxyethyl)-N-methyl-1H-pyrazolo[4,3-c]pyridine-6-carboxamide] | 40
5 | O=C(NC1CCOCC1)c1cc2c(cn1)c(C1CC1)nn2-c1ncc(-c2ccccc2F)cn1 [compound 45, 3-Cyclopropyl-1-(5-(2-fluorophenyl)pyrimidin-2-yl)-N-(tetrahydro-2H-pyran-4-yl)-1H-pyrazolo[4,3-c]pyridine-6-carboxamide] | 27
6 | C[S+]([O-])c1nn(-c2ncc(-c3cc(C#N)ccc3F)cn2)c2cc(C(=O)N3CCOCC3)ccc12 (stereo not shown) [Compound No. 25, 4-Fluoro-3-(2-(3-(methylsulfinyl)-6-(morpholine-4-carbonyl)-1H-indazol-1-yl)pyrimidin-5-yl)benzonitrile] | 85
7 | COC[C@@H]1CCCN1C(=O)c1cc2c(cn1)c(C1CC1)nn2-c1ncc(-c2ccccc2F)cn1 [compound 48, (S)-(3-Cyclopropyl-1-(5-(2-fluorophenyl)pyrimidin-2-yl)-1H-pyrazolo[4,3-c]pyridin-6-yl)(2-(methoxymethyl)pyrrolidin-1-yl)methanone] | 43
8 | CC1COCCN1C(=O)c1cc2c(cn1)c(C1CC1)nn2-c1ncc(-c2ccccc2F)cn1 (stereo not shown) [compound 44, (3-Cyclopropyl-1-(5-(2-fluorophenyl)pyrimidin-2-yl)-1H-pyrazolo[4,3-c]pyridin-6-yl)(3-methylmorpholino)methanone] | 61
9 | C[S+]([O-])c1nn(-c2ncc(-c3ccccc3F)cn2)c2cc(C(=O)N3CCNCC3)ccc12 (stereo not shown) [Compound No. 8, (1-(5-(2-Fluorophenyl)pyrimidin-2-yl)-3-(methylsulfinyl)-1H-indazol-6-yl)(piperazin-1-yl)methanone] | 64
10 | O=C(c1cc2c(cn1)c(C1CC1)nn2-c1ncc(-c2ccccc2F)cn1)N1CCCCC1 [compound 42, (3-Cyclopropyl-1-(5-(2-fluorophenyl)pyrimidin-2-yl)-1H-pyrazolo[4,3-c]pyridin-6-yl)(piperidin-1-yl)methanone] | 39
11 | CC(O)c1nn(-c2ncc(-c3ccccc3)cn2)c2cc(C(=O)N3CCOCC3)ccc12 (stereo not shown) [Compound No. 19, (3-(1-Hydroxyethyl)-1-(5-phenylpyrimidin-2-yl)-1H-indazol-6-yl)(morpholino)methanone] | 112
12 | C[S+]([O-])c1nn(-c2ncc(-c3ccccc3F)cn2)c2cc(C(=O)N3CC[C@@H](N)C3)ccc12 (stereo partly drawn) [Compound No. 13, ((R)-3-Aminopyrrolidin-1-yl)(1-(5-(2-fluorophenyl)pyrimidin-2-yl)-3-(methylsulfinyl)-1H-indazol-6-yl)methanone] | 108
13 | O=C(NCC1(O)CCC1)c1cc2c(cn1)c(C1CC1)nn2-c1ncc(-c2ccccc2F)cn1 [compound 46, 3-Cyclopropyl-1-(5-(2-fluorophenyl)pyrimidin-2-yl)-N-((1-hydroxycyclobutyl)methyl)-1H-pyrazolo[4,3-c]pyridine-6-carboxamide] | 31
14 | O=C(c1ccc2c(C(F)(F)F)nn(-c3ncc(-c4ccccc4F)cn3)c2c1)N1CCOCC1 [Compound No. 2, (1-(5-(2-Fluorophenyl)pyrimidin-2-yl)-3-(trifluoromethyl)-1H-indazol-6-yl)(morpholino)methanone] | 102
15 | COc1ccc(F)c(-c2cnc(-n3nc(S(C)(=O)=O)c4ccc(C(=O)N5CCOCC5)cc43)nc2)c1 [Compound No. 27, (1-(5-(2-Fluoro-5-methoxyphenyl)pyrimidin-2-yl)-3-(methylsulfonyl)-1H-indazol-6-yl)(morpholino)methanone] | 85
16 | COc1ccc(F)c(-c2cnc(-n3nc([S+](C)[O-])c4ccc(C(=O)N5CCOCC5)cc43)nc2)c1 (stereo not shown) [Compound No. 24, (1-(5-(2-Fluoro-5-methoxyphenyl)pyrimidin-2-yl)-3-(methylsulfinyl)-1H-indazol-6-yl)(morpholino)methanone] | 100
17 | C[S+]([O-])c1nn(-c2ncc(-c3ccccc3F)cn2)c2cc(C(=O)N3CCOCC3)ccc12 (stereo not shown) [Compound No. 6, (1-(5-(2-Fluorophenyl)pyrimidin-2-yl)-3-(methylsulfinyl)-1H-indazol-6-yl)(morpholino)methanone] | 97
18 | O=C(c1cc2c(cn1)c(C1CC1)nn2-c1ncc(-c2ccccc2F)cn1)N1CCCC1 [compound 38, (3-Cyclopropyl-1-(5-(2-fluorophenyl)pyrimidin-2-yl)-1H-pyrazolo[4,3-c]pyridin-6-yl)(pyrrolidin-1-yl)methanone] | 85
19 | CCN(C)C(=O)c1cc2c(cn1)c(C1CC1)nn2-c1ncc(-c2ccccc2F)cn1 [compound 37, 3-Cyclopropyl-N-ethyl-1-(5-(2-fluorophenyl)pyrimidin-2-yl)-N-methyl-1H-pyrazolo[4,3-c]pyridine-6-carboxamide] | 73
20 | Cc1nn(-c2ncc(-c3ccccc3F)cn2)c2cc(C(=O)N3CCOCC3)ccc12 [Compound No. 1, (1-(5-(2-Fluorophenyl)pyrimidin-2-yl)-3-methyl-1H-indazol-6-yl)(morpholino)methanone] | 99
21 | C[S+]([O-])c1nn(-c2ncc(-c3ccccc3)cn2)c2cc(C(=O)N3CCOCC3)ccc12 (stereo not shown) [Compound No. 11, (3-(Methylsulfinyl)-1-(5-phenylpyrimidin-2-yl)-1H-indazol-6-yl)(morpholino)methanone] | 115
22 | Cc1cccc(-c2cnc(-n3nc(C(C)O)c4ccc(C(=O)N5CCOCC5)cc43)nc2)c1 (stereo not shown) [Compound No. 18, (3-(1-Hydroxyethyl)-1-(5-(m-tolyl)pyrimidin-2-yl)-1H-indazol-6-yl)(morpholino)-methanone] | 96
23 | C[S+]([O-])c1nn(-c2ncc(-c3ccccc3)cn2)c2cc(C(=O)N3CCNCC3)ccc12 (stereo not shown) [Compound No. 9, (3-(Methylsulfinyl)-1-(5-phenylpyrimidin-2-yl)-1H-indazol-6-yl)(piperazin-1-yl)methanone] | 46
24 | COCCNC(=O)c1cc2c(cn1)c(C1CC1)nn2-c1ncc(-c2ccccc2F)cn1 [compound 41, 3-Cyclopropyl-1-(5-(2-fluorophenyl)pyrimidin-2-yl)-N-(2-methoxyethyl)-1H-pyrazolo[4,3-c]pyridine-6-carboxamide] | 69

Target: T1, human PDE4B1
Assay: TR-FRET assay using the LANCE Ultra cAMP kit to determine the activity of hPDE4B1
Type: biochemical
Details: test substrate concentration of 10 μM, read-out: Inhibition of PDE4B, Inhibition in %
Text: TR-FRET Assay Using the LANCE® Ultra cAMP Kit to Determine the Activity of hPDE4B1
The effects of the compounds on the activity of the human PDE4B1 was quantified by measuring the production of 5′AMP from cAMP using a human recombinant enzyme expressed in Sf9 cells and the LANCE® Ultra cAMP kit, a TR-FRET detection method from PerkinElmer. The human PDE4B1 enzyme was purchased from SignalChem Lifesciences (Catalog #P92-31BG, Lot #H296-2).
The test compound, reference compound or water (control) was mixed with the enzyme (0.96 U) in a reaction buffer containing 50 mM Tris-HCl, 50 mM MgCl2 and 5 mM DTT (pH 8.5). Thereafter, the reaction was initiated by addition of 500 nM cAMP (substrate) and the mixture was incubated for 30 minutes at room temperature. For control basal measurements, the enzyme was omitted from the reaction mixture. After 30 minutes, the reaction was stopped and diluted by a factor of 100 with the reaction buffer supplemented with 500 μM IBMX. The fluorescence donor (europium chelate-labeled cAMP) and the fluorescence acceptor (anti-cAMP antibody labeled with the ULight™ dye) were then added together with 500 μM IBMX to a 10 μl aliquot. After 60 minutes, the fluorescence transfer corresponding to the amount of residual cAMP was measured at λex=337 nm, λem=620 nm and λem=665 nm using a microplate reader (PHERAstar, BMG). The enzyme activity was determined by dividing the signal measured at 665 nm by that measured at 620 nm (ratio) multiplied by 10000. The results were expressed as percent inhibition of the control enzyme activity. IC50 values (IC50=concentration causing a half-maximal inhibition of control specific activity) were derived from dose response measurements with ten different concentrations (n=3; N=1-3).

Row | Compound | inhibition at 10 µM [%]
25 | CCc1ccc(F)c(-c2cnc(-n3nc(C(C)O)c4ccc(C(=O)N(C)CC(N)=O)cc43)nc2)c1 (stereo not shown) [Compound No. 68, N-(2-Amino-2-oxoethyl)-1-(5-(5-ethyl-2-fluorophenyl)pyrimidin-2-yl)-3-(1-hydroxyethyl)-N-methyl-1H-indazole-6-carboxamide] | 106

From patent US9546158B2, “2,5-substituted pyrimidines” (Grünenthal GmbH, priority 2014, dated 2017)
